Three compounds from patent US6525001B1, “Substituted pyrimidine and pyridine herbicides” (Mid-American Commercialization Corporation, priority 1997, dated 2003) can be followed below.

Common to all, as to test: Test C
Holding throughout (assay type): in vivo
What all share (design): key: 0 was no effect; 100 was complete control
Holding throughout (settings): PREEMERGENCE

The test system of test [1] is barnyardgrass (Echinochloa crus-galli).
For another test, the system named is corn (Zea mays).
The subject of test [2] is fall panicum (Panicum dichotomiflorum).
Test [3] relates to hairy beggarticks (Bidens pilosa).
Test [4] deals with johnsongrass (Sorghum halepense).
In test [5] the test system is redroot pigweed (Amaranthus retroflexus).
Another test concerns soybean (Glycine max).
Test [6] deals with surinam grass (Brachiaria decumbens).

As to `Cc1cnc(-c2ccc(C(F)(F)F)cc2)nc1C(Cl)c1cccc(C(F)(F)F)c1` (racemic) [Compound 21], the “Plant response rating, Barnyardgrass” value is on record as 0 in test [1] (Rate 35 g/ha), 0 in test [1] (Rate 70 g/ha) and 5 in test [1] (Rate 140 g/ha). For the same compound, the “Plant response rating, Corn” value in the test on corn (Zea mays) (Rate 35 g/ha), with corn (Zea mays) (Rate 70 g/ha) and with corn (Zea mays) (Rate 140 g/ha) was 0 each time. Besides, the “Plant response rating, Fall panicum” value in test [2] (Rate 35 g/ha) is on record as 10; in test [2] (Rate 70 g/ha), 0; in test [2] (Rate 140 g/ha) it was 90. Also, the results for the “Plant response rating, H. beggarticks” value in test [3] (Rate 35 g/ha), in test [3] (Rate 70 g/ha) and in test [3] (Rate 140 g/ha) were 0, 0 and 40, respectively. Besides, the “Plant response rating, Johnsongrass” value in test [4] (Rate 35 g/ha) amounted to 0; in test [4] (Rate 70 g/ha), 0; in test [4] (Rate 140 g/ha) it was 5. For the same compound, the “Plant response rating, Redroot pigweed” value in test [5] (Rate 70 g/ha) is 80; in test [5] (Rate 140 g/ha), 100. The results for the “Plant response rating, Soybean” value with soybean (Glycine max) (Rate 35 g/ha), in the test with soybean (Glycine max) (Rate 70 g/ha) and in the test with soybean (Glycine max) (Rate 140 g/ha) were 0, 0 and 5, respectively. Further, the “Plant response rating, Surinam grass” value in test [6] (Rate 35 g/ha) is given as 0; in test [6] (Rate 70 g/ha), 5; in test [6] (Rate 140 g/ha) it was 10.
Take `Cc1cnc(-n2cnc(C(F)(F)F)n2)nc1Cc1cccc(C(F)(F)F)c1` [Compound 43]: the “Plant response rating, Barnyardgrass” value in test [1] (Rate 35 g/ha) was 10; in test [1] (Rate 70 g/ha) it was 30; in test [1] (Rate 140 g/ha), 50. Also, the “Plant response rating, Corn” value with corn (Zea mays) (Rate 35 g/ha) came out at 0; in the test on corn (Zea mays) (Rate 70 g/ha), 30; in the test on corn (Zea mays) (Rate 140 g/ha), 55. In addition, the “Plant response rating, Fall panicum” value in test [2] (Rate 35 g/ha), in test [2] (Rate 70 g/ha) and in test [2] (Rate 140 g/ha) was 100 each time. Moreover, the “Plant response rating, H. beggarticks” value was determined as 0 in test [3] (Rate 35 g/ha), 5 in test [3] (Rate 70 g/ha) and 100 in test [3] (Rate 140 g/ha). Further, the “Plant response rating, Johnsongrass” value in test [4] (Rate 35 g/ha) is on record as 10; in test [4] (Rate 70 g/ha) it was 30; in test [4] (Rate 140 g/ha), 30. Further, the “Plant response rating, Redroot pigweed” value in test [5] (Rate 35 g/ha), in test [5] (Rate 70 g/ha) and in test [5] (Rate 140 g/ha) was 100 each time. For the same compound, the “Plant response rating, Soybean” value in the test with soybean (Glycine max) (Rate 35 g/ha) is 0; in the test on soybean (Glycine max) (Rate 70 g/ha), 5; in the test on soybean (Glycine max) (Rate 140 g/ha) it was 55. For the same compound, the “Plant response rating, Surinam grass” value in test [6] (Rate 35 g/ha) is 0; in test [6] (Rate 70 g/ha), 5; in test [6] (Rate 140 g/ha), 10.
With `Cc1cnc(-n2ccc(C(F)(F)F)n2)nc1C(=O)c1cccc(OC(F)(F)F)c1` [Compound 66], the “Plant response rating, Barnyardgrass” value in test [1] (Rate 35 g/ha) was found to be 0; in test [1] (Rate 70 g/ha), 5; in test [1] (Rate 140 g/ha), 5. The “Plant response rating, Corn” value with corn (Zea mays) (Rate 35 g/ha), in the test on corn (Zea mays) (Rate 70 g/ha) and with corn (Zea mays) (Rate 140 g/ha) was 0 each time. For the same compound, the “Plant response rating, Fall panicum” value in test [2] (Rate 35 g/ha) was 80; in test [2] (Rate 70 g/ha), 80; in test [2] (Rate 140 g/ha) it was 100. The “Plant response rating, H. beggarticks” value in test [3] (Rate 35 g/ha), in test [3] (Rate 70 g/ha) and in test [3] (Rate 140 g/ha) was 0 in each case. Further, the “Plant response rating, Johnsongrass” value in test [4] (Rate 35 g/ha) was 0; in test [4] (Rate 70 g/ha), 5; in test [4] (Rate 140 g/ha), 10. The “Plant response rating, Redroot pigweed” value in test [5] (Rate 35 g/ha), in test [5] (Rate 70 g/ha) and in test [5] (Rate 140 g/ha) was 100 in each case. Further, the “Plant response rating, Soybean” value in the test on soybean (Glycine max) (Rate 35 g/ha), in the test on soybean (Glycine max) (Rate 70 g/ha) and in the test with soybean (Glycine max) (Rate 140 g/ha) was 0 in each case. Besides, the “Plant response rating, Surinam grass” value in test [6] (Rate 35 g/ha) was determined as 5; in test [6] (Rate 70 g/ha) it was 5; in test [6] (Rate 140 g/ha), 20.
